Earlier results as cited in publication PMC9729070 (Bioorganic & medicinal chemistry letters, 2022).

Experiments:
[1] = CRPC patients
[2] = Phase I clinical trials

| bioavailability [2] | Compound | survival time prolongation [1] |
| --- | --- | --- |
| – | CNC(=O)c1ccc(N2C(=S)N(c3ccc(C#N)c(C(F)(F)F)c3)C(=O)C2(C)C)cc1F [enzalutamide (Xtandi), enzalutamide] | five |
| unacceptable bioavailability | O=C(Nc1ccc([N+](=O)[O-])cc1Cl)c1cc(Cl)ccc1O [Niclosamide (1), Niclosamide] | – |
